Where two headings read alike, the source gives them in different places.
Key:
[1] = rcm bond, DCM
CVF-Bb complex = CVF-Bb complex (Homo sapiens (Human), UniProt P00751); assay: biochemical; format: biochemical
Description: CVF-Bb complex, prepared from purified cobra venom factor, (3 nM) is incubated with a compound of the disclosure at various concentrations for 10 minutes at room temperature in PBS (pH 7.4) containing 10 mM MgCl2 and 0.05% (w/v) CHAPS. Human Complement C3 substrate is added to a final concentration of 1 μM. After 1 hour incubation at room temperature, the enzyme reaction is stopped by addition of a cocktail of concentrated pan-protease inhibitors. The product of the reaction, C3a, is quantified by means of an enzyme-linked-immunosorbent assay and/or denaturing gel electrophoresis (SDS-PAGE). IC50 values are calculated from percentage of inhibition of CVF-Bb activity as a function of test compound concentration.

In the case of COC(=O)c1ccc2c(c1)OCCC=CCO[C@H]1CCN(C(=O)OC(C)(C)C)[C@H]2C1, the ring closure, isolated yield ([1]; from C=CCCOc1cc(C(=O)OC)ccc1[C@@H]1C[C@@H](OCC=C)CCN1C(=O)OC(C)(C)C, 12-membered ring, Grubbs I (20 mol%), 2.22 mM, 25.0 °C, 18.0 h) is reported as 61.9%.
COC(=O)c1ccc2c3cc(ccc13)OCC=CCO[C@H]1CCN(C(=O)OC(C)(C)C)[C@H]2C1 showed a ring closure, isolated yield ([1]; from C=CCOc1ccc2c(C(=O)OC)ccc([C@@H]3C[C@@H](OCC=C)CCN3C(=O)OC(C)(C)C)c2c1, 13-membered ring, Grubbs I, 2.1 mM, 25.0 °C, 18.0 h) of 67.1%.
COC(=O)c1ccc2c3cc(ccc13)OCCC=CCO[C@H]1CCN(C(=O)OC(C)(C)C)[C@H]2C1 gave a ring closure, isolated yield ([1]; from C=CCCOc1ccc2c(C(=O)OC)ccc([C@@H]3C[C@@H](OCC=C)CCN3C(=O)OC(C)(C)C)c2c1, 14-membered ring, Grubbs I, 3.2 mM, 16.0 h) of 33.4%.
For CC(C)(C)OC(=O)N1CCC2(O)CC=CCCCCOc3cc(Br)ccc3[C@@H]1C2, the ring closure, isolated yield ([1]; from C=CCCCCOc1cc(Br)ccc1[C@@H]1CC(O)(CC=C)CCN1C(=O)OC(C)(C)C, 13-membered ring, Grubbs I, 2.5 mM, 25.0 °C, 48.0 h) was 65.9%.
Work on COC(=O)c1ccc2c(c1)OCCCCC=CCO[C@H]1CCN(C(=O)OC(C)(C)C)[C@H]2C1 yielded a ring closure, isolated yield ([1]; from C=CCCCCOc1cc(C(=O)OC)ccc1[C@@H]1C[C@@H](OCC=C)CCN1C(=O)OC(C)(C)C, 14-membered ring, Grubbs I (20 mol%), 2.15 mM, 25.0 °C, 18.0 h) of 72.4% and a ring closure, isolated yield ([1]; from C=CCCCCOc1cc(C(=O)OC)ccc1[C@@H]1C[C@@H](OCC=C)CCN1C(=O)OC(C)(C)C, 14-membered ring, Grubbs I (20 mol%), 2.17 mM, 25.0 °C, 18.0 h) of 83.2%.
For COC(=O)c1ccc2c3cc(ccc13)OCCCC=CCO[C@H]1CCN(C(=O)OC(C)(C)C)[C@H]2C1, the ring closure, isolated yield ([1]; from C=CCCCOc1ccc2c(C(=O)OC)ccc([C@@H]3C[C@@H](OCC=C)CCN3C(=O)OC(C)(C)C)c2c1, 15-membered ring, Grubbs I, 1.95 mM, 25.0 °C, 18.0 h) was 75.3% and the ring closure, isolated yield ([1]; from C=CCCCOc1ccc2c(C(=O)OC)ccc([C@@H]3C[C@@H](OCC=C)CCN3C(=O)OC(C)(C)C)c2c1, 15-membered ring, Grubbs I, 2.0 mM, 25.0 °C, 18.0 h) was 22.7%.
CCO[C@@H]1CCN(Cc2c(OC)cc(C)c3[nH]ccc23)[C@H](c2ccc(C(=O)O)cc2OC)C1 [Ex. 4, 4-((2S,4R)-4-ethoxy-1-((5-methoxy-7-methyl-1H-indol-4-yl)methyl)piperidin-2-yl)-3-methoxybenzoic acid] gave an IC50 (CVF-Bb complex) of 3.55 µM.
Compound COc1cc(C)c2[nH]ccc2c1CN1CC[C@H]2C[C@H]1c1ccc(C(=O)NS(C)(=O)=O)cc1/C=C/CCCCCO2 [Ex. 69, (1^2S,1^4S,E)-1^1-((5-methoxy-7-methyl-1H-indol-4-yl)methyl)-N-(methylsulfonyl)-10-oxa-1(2,4)-piperidina-2(1,2)-benzenacyclodecaphan-3-ene-2^4-carboxamide] has an IC50 (CVF-Bb complex; read-out: IC50) of 0.581 µM.
For COc1cc(C)c2[nH]ccc2c1CN1CC[C@H]2CCCCCCCOc3cc(C(=O)O)ccc3[C@@H]1C2 [Ex. 78, (1^2S,1^4R)-1^1-((5-methoxy-7-methyl-1H-indol-4-yl)methyl)-3-oxa-1(2,4)-piperidina-2(1,2)-benzenacyclodecaphane-2^4-carboxylic acid], the IC50 (CVF-Bb complex; read-out: IC50) was 0.731 µM.
With COc1cc(C)c2[nH]ccc2c1CN1CC[C@H]2C[C@H]1c1ccc(C(=O)NS(=O)(=O)C3(C)CC3)cc1OCCCCCO2 [Ex. 67, (1^2S,1^4S)-1^1-((5-methoxy-7-methyl-1H-indol-4-yl)methyl)-N-((1-methylcyclopropyl)sulfonyl)-3,9-dioxa-1(2,4)-piperidina-2(1,2)-benzenacyclononaphane-2^4-carboxamide] the IC50 (CVF-Bb complex; read-out: IC50) was 0.33 µM.
For Cc1cc2c(c3cc[nH]c13)CN1CC[C@@H](C[C@H]1c1ccc(C(=O)O)cc1)OCCCCCCCCO2 [Ex. 35, 4-((3^2R,3^4R)-1^7-methyl-11H-4,13-dioxa-1(4,5)-indola-3(1,4)-piperidinacyclotridecaphane-3^2-yl)benzoic acid], the IC50 (CVF-Bb complex) was > 10 µM.
COc1cc(C)c2[nH]ccc2c1CN1CC[C@H]2C[C@H]1c1ccc(C(=O)NO)cc1OCCCCCCO2 [Ex. 63, (1^2S,1^4S)—N-hydroxy-1^1-((5-methoxy-7-methyl-1H-indol-4-yl)methyl)-3,10-dioxa-1(2,4)-piperidina-2(1,2)-benzenacyclodecaphane-2^4-carboxamide] showed an IC50 (CVF-Bb complex; read-out: IC50) of 2.45 µM.
In the case of COc1cc(C)c2[nH]ccc2c1CN1CC[C@H]2C[C@H]1c1ccc(C(=O)NS(=O)(=O)C3CC3)cc1OCCCCCCO2 [Ex. 50, (12S,14S)—N-(cyclopropylsulfonyl)-11-((5-methoxy-7-methyl-1H-indol-4-yl)methyl)-3,10-dioxa-1(2,4)-piperidina-2(1,2)-benzenacyclodecaphane-24-carboxamide], the IC50 (CVF-Bb complex; read-out: IC50) is reported as > 10 µM.
Work on COC(=O)c1ccc2c3cc(ccc13)OCCCC=CCO[C@@H]1CCN(C(=O)OC(C)(C)C)[C@@H]2C1 yielded a ring closure, isolated yield ([1]; from C=CCCCOc1ccc2c(C(=O)OC)ccc([C@H]3C[C@H](OCC=C)CCN3C(=O)OC(C)(C)C)c2c1, 15-membered ring, Grubbs I, 1.96 mM, 25.0 °C, 18.0 h) of 74%.
Work on COc1cc(C)c2[nH]ccc2c1CN1CC[C@@H]2C[C@@H]1c1ccc(C(=O)O)cc1OCC/C=C\CO2 [Ex. 42, (1^2R,1^4R,Z)-1^1-((5-methoxy-7-methyl-1H-indol-4-yl)methyl)-3,9-dioxa-1(2,4)-piperidina-2(1,2)-benzenacyclononaphan-6-ene-2^4-carboxylic acid] yielded an IC50 (CVF-Bb complex) of 1.06 µM.
Compound COc1cc(C)c2[nH]ccc2c1CN1CC[C@H]2C[C@H]1c1ccc(-c3nnn[nH]3)cc1OCCCCCCO2 [Ex. 74, (1^2S,1^4S)-1^1-((5-methoxy-7-methyl-1H-indol-4-yl)methyl)-2^4-(1H-tetrazol-5-yl)-3,10-dioxa-1(2,4)-piperidina-2(1,2)-benzenacyclodecaphane] has an IC50 (CVF-Bb complex; read-out: IC50) of 1.25 µM.
In the case of COc1cc(C)c2[nH]ccc2c1CN1CC[C@H]2C[C@H]1c1ccc(C(=O)O)cc1CCCCCCCCO2 [Ex. 41, (1^2R,1^4R)-1^1-((5-methoxy-7-methyl-1H-indol-4-yl)methyl)-11-oxa-1(2,4)-piperidina-2(1,2)-benzenacycloundecaphane-2^4-carboxylic acid], the IC50 (CVF-Bb complex) is reported as 0.129 µM.
Compound COc1cc(C)c2[nH]ccc2c1CN1CC[C@H]2C[C@H]1c1ccc(C(=O)O)c3ccc(cc13)OCC/C=C/CO2 [Ex. 76, (1^2S,1^4S)-1^1-((5-methoxy-7-methyl-1H-indol-4-yl)methyl)-3,9-dioxa-1(2,4)-piperidina-2(1,7)-naphthalenacyclononaphane-2^4-carboxylic acid] has an IC50 (CVF-Bb complex; read-out: IC50) of 0.251 µM.
For COC(=O)c1ccc2c(c1)OCCCC=CCO[C@H]1CCN(C(=O)OC(C)(C)C)[C@H]2C1, the ring closure, isolated yield ([1]; from C=CCCCOc1cc(C(=O)OC)ccc1[C@@H]1C[C@@H](OCC=C)CCN1C(=O)OC(C)(C)C, 13-membered ring, Grubbs I (20 mol%), 2.22 mM, 25.0 °C, 18.0 h) was 68.8%.
For COc1cc(C)c2[nH]ccc2c1CN1CC[C@H]2C[C@H]1c1ccc(C(=O)O)cc1/C=C/CCCCCCCO2 [Ex. 73, (1^2S,1^4S,Z)-1^1-((5-methoxy-7-methyl-1H-indol-4-yl)methyl)-12-oxa-1(2,4)-piperidina-2(1,2)-benzenacyclododecaphan-3-ene-2^4-carboxylic acid], the IC50 (CVF-Bb complex; read-out: IC50) was 0.271 µM.
CCO[C@H]1CCN2Cc3c(cc(C)c4[nH]ccc34)OCCCCCCCCOc3cc(C(=O)O)ccc3[C@@H]2C1 [Ex. 30, (19bS,21S)-21-ethoxy-4-methyl-7,8,9,10,11,12,13,14,19b,20,21,22,23,25-tetradecahydro-3H-benzo[7,8]pyrido[1′,2′:5,6][1,9,5]dioxaazacyclo-heptadecino[3,2-e]indole-1^7-carboxylic acid] gave an IC50 (CVF-Bb complex) of 4.91 µM.
With COc1cc(C)c2[nH]ccc2c1CN1CC[C@H]2C[C@H]1c1ccc(C(=O)NS(C)(=O)=O)cc1CCCCCCCCO2 [Ex. 65, (1^2S,1^4S)-1^1-((5-methoxy-7-methyl-1H-indol-4-yl)methyl)-N-(methylsulfonyl)-11-oxa-1(2,4)-piperidina-2(1,2)-benzenacycloundecaphane-2^4-carboxamide] the IC50 (CVF-Bb complex; read-out: IC50) was 0.139 µM.
Work on COc1cc(C)c2[nH]ccc2c1CN1CC[C@H]2C[C@H]1c1ccc(C(=O)NS(C)(=O)=O)c3ccc(cc13)OCCCCCCO2 [Ex. 56, (1^2S,1^4S)-1^1-((5-methoxy-7-methyl-1H-indol-4-yl)methyl)-N-(methylsulfonyl)-3,10-dioxa-1(2,4)-piperidina-2(1,7)-naphthalenacyclodecaphane-2^4-carboxamide] yielded an IC50 (CVF-Bb complex; read-out: IC50) of 0.375 µM.
With COc1cc(C)c2[nH]ccc2c1CN1CC[C@H]2C[C@H]1c1ccc(C(=O)O)c3ccc(cc13)OC/C=C\CO2 [Ex. 75, (1^2S,1^4S,Z)-1′-((5-methoxy-7-methyl-1H-indol-4-yl)methyl)-3,8-dioxa-1(2,4)-piperidina-2(1,7)-naphthalenacyclooctaphan-5-ene-2^4-carboxylic acid] the IC50 (CVF-Bb complex; read-out: IC50) was 0.352 µM.
Work on C=CCCCOc1cc(Br)ccc1[C@@H]1C[C@@H](O)CCN1C(=O)OCc1ccccc1 yielded a ring closure, isolated yield ([1]; the molecule shown is the open-chain precursor, 13-membered ring, Grubbs I (5 mol%), 1.75 mM, 25.0 °C) of 76.4%.
